The source of these data is patent publication US9684253B2, “Triphenylamine derivative, electrophotographic photosensitive member, and image forming apparatus” (KYOCERA Document Solutions Inc., priority 2014, dated 2017).

This data set is described as follows: Evaluation of triphenylamine derivative solubility in tetrahydrofuran. Conditions: for Solubility: tetrahydrofuran, 25° C., {100/(100+W)}×100; for solubility in a solvent used for photosensitive layer formation (in words): as shown by Table 1. In kind it is physicochemical. The procedure:
Solubility of each of the triphenylamine derivatives (HT-1) to (HT-8), (HT-A), and (HT-B) was evaluated. More specifically, solubility of the obtained triphenylamine derivative was evaluated by calculating percentage solubility according to the following method. In the method, a small amount of tetrahydrofuran was added to 100 mg of the triphenylamine derivative at 25° C. Next, the mixture was shaken and left to stand, and the above steps were repeated in order to find an additive amount W (mg) of tetrahydrofuran for which solubility of the triphenylamine derivative was saturated. The additive amount W was used to calculate the percentage solubility according to equation (1) shown below. […] Solubility (%)={100/(100+W)}×100 Equation (1): […]

Molecules are shown by their SMILES.

With `CCc1cccc(C)c1N(c1ccc(/C=C/C=C/c2ccccc2)cc1)c1ccc(-c2ccc(N(c3ccc(/C=C/C=C/c4ccccc4)cc3)c3c(C)cccc3CC)cc2)cc1` [HT-1], the Solubility stood at 12%. On the same count and under the same terms, the result for `CCc1cccc(C)c1N(c1ccc(/C=C/C=C/c2ccc(C)cc2)cc1)c1ccc(-c2ccc(N(c3ccc(/C=C/C=C/c4ccc(C)cc4)cc3)c3c(C)cccc3CC)cc2)cc1` [HT-2] reads 12%; that for `Cc1ccccc1N(c1ccc(/C=C/C=C/c2ccccc2)cc1)c1ccc(-c2ccc(N(c3ccc(/C=C/C=C/c4ccccc4)cc3)c3ccccc3C)cc2)cc1` [HT-3], 14%.

For `CCc1cccc(OC)c1N(c1ccc(/C=C/C=C/c2ccc(C)cc2)cc1)c1ccc(-c2ccc(N(c3ccc(/C=C/C=C/c4ccc(C)cc4)cc3)c3c(CC)cccc3OC)cc2)cc1` [HT-4], the Solubility came to 20%. Take `CCc1cccc(C)c1N(c1ccc(/C=C/C=C/c2cccc(OC)c2)cc1)c1ccc(-c2ccc(N(c3ccc(/C=C/C=C/c4cccc(OC)c4)cc3)c3c(CC)cccc3OC)cc2)cc1` [HT-5]: the Solubility is recorded as 18%. Take `Cc1ccc(N(c2ccc(/C=C/C=C/c3ccccc3)cc2)c2ccc(-c3ccc(N(c4ccc(/C=C/C=C/c5ccccc5)cc4)c4ccc(C)cc4C)cc3)cc2)c(C)c1` [HT-7]: the Solubility turned out to be 14%. For `C(/C=C/c1ccc(N(c2ccc(-c3ccc(N(c4ccc(/C=C/C=C/c5ccccc5)cc4)c4ccccc4-c4ccccc4)cc3)cc2)c2ccccc2-c2ccccc2)cc1)=C\c1ccccc1` [HT-8], the Solubility stood at 12%.

Consider `C(/C=C/c1ccc(N(c2ccccc2)c2ccc(-c3ccc(N(c4ccccc4)c4ccc(/C=C/C=C/c5ccccc5)cc4)cc3)cc2)cc1)=C\c1ccccc1` [HT-A, reference compound], for which the “solubility in a solvent used for photosensitive layer formation (in words)” value is “poor solubility” and the Solubility result was “≦1%”.

In the case of `Cc1cccc(N(c2ccc(/C=C/C=C/c3ccccc3)cc2)c2ccc(-c3ccc(N(c4ccc(/C=C/C=C/c5ccccc5)cc4)c4cccc(C)c4)cc3)cc2)c1` [HT-B, reference compound], the “solubility in a solvent used for photosensitive layer formation (in words)” value was “poor solubility” and the Solubility came to 7%.
